Measurements from patent publication US20210315837A1, “CANNABINOIDS FOR THE TREATMENT OF GRAM-POSITIVE INFECTIONS INCLUDING ANTIBIOTIC-RESISTANT BACTERIAL STRAINS” (priority 2018, published 2021).
Converted amounts (≈) assume the structure as drawn. “And” between values parts separate entries of the source, which are not always exact repeats. Identical values can stand only once. Like-named read-outs stand apart in the source and are kept apart here.

Legend:
[1] = tested on: MRS 33591; test: IC50, MIC and MBC against MRS 33591; assay type: cell-based, Staphylococcus aureus
Procedure: (§1) As used herein, the term “minimum inhibitory concentration (MIC)” refers to the lowest concentration of an antimicrobial agent that will inhibit the visible growth of a microorganism after overnight incubation. MIC values against bacteria may be determined by standard methods. See also P. A. Wayne, Methods for Dilution Antimicrobial Tests for Bacteria that Grow Aerobically; Approved Standard, Ninth Edition, 2012, CLSI Document M07-A9, Vol. 32 No. 2, which is incorporated by reference herein in its entirety.

[2] = tested on: S. aureus 29213; test: IC50, MIC and MBC against S. aureus 29213; assay type: cell-based
Procedure: As used herein, the term “minimum inhibitory concentration (MIC)” refers to the lowest concentration of an antimicrobial agent that will inhibit the visible growth of a microorganism after overnight incubation. MIC values against bacteria may be determined by standard methods.

[3] = tested on: MRS 1708 (Mupirocin-resistant); test: IC50, MIC and MBC against MRS 1708 (Mupirocin-resistant); assay type: cell-based, Staphylococcus aureus; design: AMC: unit not given here
Procedure: as §1

[4] = tested on: MRS USA 400; test: IC50, MIC and MBC against MRS USA 400; assay type: cell-based, Staphylococcus aureus
Procedure: as §1

[5] = tested on: MRS USA 300; test: IC50, MIC and MBC against MRS USA 300; assay type: cell-based, Staphylococcus aureus
Procedure: as §1

[6] = tested on: Mupirocin-resistant MRS; assay type: cell-based, Staphylococcus aureus; settings: in combination with Mupirocin
[7] = tested on: MRS 1717; test: Growth inhibition of cannabinoid combinations, IC50s chosen for FICs, MRS 1717; assay type: cell-based; settings: Staphylococcus aureus
[8] = tested on: MRS 1696; test: Growth inhibition of cannabinoid combinations, IC50s chosen for FICs, MRS 1696; assay type: cell-based; settings: Staphylococcus aureus
[9] = tested on: MRS 1708; test: Growth inhibition of cannabinoid combinations, IC50s chosen for FICs, MRS 1708; assay type: cell-based; settings: Staphylococcus aureus
[10] = tested on: MRS 33591; test: Growth inhibition of cannabinoid combinations, IC50s chosen for FICs, MRS 33591; assay type: cell-based; settings: Staphylococcus aureus
[11] = MRS 33591, tested Conc. in μg/mL
[12] = S. aureus 29213, tested Conc. in μg/mL
[13] = S. aureus 29213, tested Conc. in μg/mL, NA given without definition
[14] = Mupirocin-resistant MRS (Table 11)
[15] = Mupirocin-resistant MRS (Table 11), in µg/mL
[16] = MRS USA 400, tested Conc. in μg/mL
[17] = MRS USA 300, tested Conc. in μg/mL
[18] = Staphylococcus aureus, S. aureus 29213, tested Conc. in μg/mL, read-out: MIC
[19] = read-out: IC50, Cannabidiol (CBD) + Cannabigerol (CBG)
[20] = read-out: IC50, Cannabidiol (CBD) + Cannabinol (CBN)

Row | Compound | IC50 [1, 11] | MIC [1, 11] | MIC [2, 12] | IC50 [2, 13] | AMC [3, 14] | IC50 [3, 15] | IC50 [4, 16] | MIC [4, 16] | IC50 [5, 17] | MIC [5, 17] | IC50 ([1]; Staphylococcus aureus) | MIC ([1]; Staphylococcus aureus) | IC50 ([2]; Staphylococcus aureus, 29213) | IC50 ([3]; Staphylococcus aureus) | IC50 ([4]; Staphylococcus aureus, USA400) | MBC [5, 17] | IC50 ([5]; Staphylococcus aureus, USA300) | other results
1 | CCCCCc1cc(O)c(C/C=C(\C)CCC2OC2(C)C)c(O)c1 (stereo not shown) [6,7-Epoxycannabigerol] | 6.73 | 13.33 | 16.67 | 5.83 | 20 ± 0 | 7.74 ± 1.17 | 8.67 | 20 ± 0 | 7.53 | 20 ± 0 | – | – | – | – | – | – | – | –
2 | CCCCCc1cc(O)c2c(c1)OC(C)(C)c1cc(O)c(C)cc1-2 [8-Hydroxycannabinol] | 2.33 | 5 ± 0 | 5 ± 0 | 1.2 | – | 2.15 ± 0.22 | 1.82 | 5 ± 0 | 1.58 | 5 ± 0 | – | – | – | – | – | – | – | –
3 | CC(C)=CCC/C(C)=C\Cc1c(O)cc(C)cc1O [(Z)-Cannabigerorcin] | 9.48 | 20 ± 0 | 16.67 | 8.12 | – | 6.93 ± 1.54 | 7.27 | 13.33 | 6.46 | 16.67 | – | – | – | – | – | – | – | –
4 | C=C(C)[C@@H]1CCC(C)=C[C@H]1c1c(O)cc(CCCCC)cc1O [CBD, Cannabidiol] | – | – | – | – | – | – | – | 2.5 ± 0 | – | 1.67 | 3.24 µM and 1.02 µg/mL | 6.61 µM and 2.08 µg/mL | 1.16 µg/mL (≈ 3.69 µM) | 2.86 µM and 0.9 µg/mL | 3.69 µM and 1.16 µg/mL | 3.33 | 2.99 µM and 0.94 µg/mL | effect of combination with Mupirocin [6]: no effect; MIC [2, 18]: 2.08 µg/mL (≈ 6.61 µM); MBC ([3]; Staphylococcus aureus): 10.6 ± 4.58 µM (≈ 3.33 µg/mL); MIC ([3]; Staphylococcus aureus): 5.31 ± 2.29 µM (≈ 1.67 µg/mL); MIC ([4]; Staphylococcus aureus, USA400): 7.95 µM (≈ 2.5 µg/mL); MBC ([5]; Staphylococcus aureus, USA300): 10.6 ± 4.58 µM (≈ 3.33 µg/mL); MIC ([5]; Staphylococcus aureus, USA300): 5.31 ± 2.29 µM (≈ 1.67 µg/mL); IC50 [7, 19]: 0.864 µg/mL; IC50 [7, 20]: 1.1 µg/mL; IC50 [8, 19]: 1.28 µg/mL; IC50 [8, 20]: 1.36 µg/mL; IC50 ([9]; read-out: IC50, Cannabidiol (CBD) + Cannabigerol (CBG), IC50 of first-named cannabinoid at the fixed ug/mL of the second given in the label): 0.96 µg/mL; IC50 ([9]; read-out: IC50, Cannabidiol (CBD) + Cannabinol (CBN), IC50 of first-named cannabinoid at the fixed ug/mL of the second given in the label): 1.06 µg/mL; IC50 [10, 19]: 1.23 µg/mL; IC50 [10, 20]: 1.28 µg/mL
5 | CCCCCc1cc(O)c2c(c1)OC(C)(CCC=C(C)C)C=C2 (stereo not shown) [Cannabichromene] | – | – | – | – | – | – | – | – | – | – | 2.58 µg/mL (≈ 8.2 µM) | 5 µg/mL (≈ 15.9 µM) | 6.96 µg/mL (≈ 22.1 µM) | 5.04 ± 0.55 µg/mL (≈ 16 µM) | 7.28 µg/mL (≈ 23.2 µM) | – | 6.44 µg/mL (≈ 20.5 µM) | –
6 | CC(C)=CCCC1(C)C=Cc2c(O)cc(C)cc2O1 (stereo not shown) [Cannabichromeorcin] | 5.56 | 10 ± 0 | 10 ± 0 | 6.94 | 13.33 ± 5.77 | 5.57 ± 0.27 | 5.9 | 10 ± 0 | 5.41 | 10 ± 0 | – | – | – | – | – | 13.33 | – | MBC [1, 11]: 20 ± 0; MBC [4, 16]: 20 ± 0
7 | C=C(C)[C@@H]1CCC(C)=C[C@H]1c1c(O)cc(CCCCC)c(C(=O)O)c1O [Cannabidiolic acid] | – | – | – | – | – | – | – | 13.33 | – | 20 ± 0 | 7.27 µg/mL (≈ 20.3 µM) | 20 µg/mL (≈ 55.8 µM) | 6.83 µg/mL (≈ 19.1 µM) | 5.57 ± 0.68 µg/mL (≈ 15.5 µM) | 4.99 µg/mL (≈ 13.9 µM) | – | 6.11 µg/mL (≈ 17 µM) | MIC [2, 18]: 16.7 µg/mL (≈ 46.5 µM)
8 | C=C(C)[C@@H]1CC[C@](C)(O)[C@H]2Oc3cc(CCCCC)cc(O)c3[C@@H]12 [Cannabielsoin] | 6.26 | 10 ± 0 | 10 ± 0 | 6.15 | 20 ± 0 | 6.03 ± 0.49 | 6.03 | 10 ± 0 | 5.49 | 10 ± 0 | – | – | – | – | – | 20 ± 0 | – | –
